Experiments:
Cn+St pancreatitis = assay: Antipancreatitis activity: severity of pancreatitis and wet weight of pancreas in Cn+St pancreatitis (cerulein plus water immersion stress); format: in vivo, SD rats (female, 12-week-old); conditions: for Wet weight of pancreas / Severity of pancreatitis: oral gavage 18 and 2 hours before first Cn dosing, mean ± S.E.; for Severity of pancreatitis: score
Source text: The antipancreatitis action of the compound of the invention was confirmed in a test using rats as described hereinafter. The test protocol used is the most popular of all of the test protocols available for the evaluation of therapeutic drugs for pancreatitis in animals. A high correlation has been reported to hold between the antipancreatitis effect found by this test and the clinical effect in man [Yamaguchi et al.: Association of stresses in the onset of pancreatitis, Shoukakika, 18(2), 186-196, 1994). Female 12-week-old SD rats were used in groups of 10 individuals. After 40 μg/kg of cerulein (Cn) was administered intraperitoneally, the animals were placed in stress cages and immersed down to the xiphoid in a constant-temperature bath at 23° C. One hour later, 40 μg/kg of Cn was administered i.p. again and the stress loading was continued. After 5 hours of stress loading, the animals were sacrificed and laparotomized and the severity of pancreatitis was scored in accordance with the evaluation criteria proposed by Yamaguchi et al. (Gastroenterology 98: 1682-1688, 1990). In addition, the pancreas was excised and its wet weight was determined. As the test compounds, compounds 1, 2, 3, and 4 were administered by oral gavage 18 and 2 hours before the first Cn dosing. As a control compound, irsogladine maleate was used. Statistical significance was tested by Wilcoxon rank sum test for the severity and by Dunnett test for the wet weight.

[1] = Effect on body weight gain; format: in vivo, SD rats (male, 6-week-old); conditions: 1000 mg/kg orally daily for 2 consecutive weeks
Experimental: Compound 1 was administered orally to 6-week-old male SD rats (in groups of 5) daily to investigate its effect on body weight gain.

male mice (BALB/c) = assay: Acute toxicity; format: in vivo; conditions: monitored for 1 week
Experimental: Six-week-old male mice (BALB/c) fasted in advance was orally dosed with 1 g/kg or 500 mg/kg of the test compound and the time course of mortality was monitored for 1 week. The test compound was suspended in 0.5% aqueous methylcellulose solution and administered in the dose of 500 or 1,000 mg/20 ml/kg. […] The toxicity of the compound of the invention is, thus, extremely low.

[2] = system: cerulein-induced acute pancreatitis; conditions: Proceedings of the 36th Congress of The Japanese Society of Gastroenterology, p.266; cited from earlier work

Which results are given for `Nc1nc(-c2cc(Cl)ccc2Cl)nc(N(CCO)CCO)n1` [Compound 1, 2-Amino-4-[N,N-bis(2-hydroxyethyl)amino]-6-(2,5-dichlorophenyl)-1,3,5-triazine]?
Wet weight of pancreas (Cn+St pancreatitis; 10 mg/kg): 9.33 ± 0.66 g/kg; Severity of pancreatitis (Cn+St pancreatitis; 10 mg/kg): 1.4 ± 0.22; Wet weight of pancreas (Cn+St pancreatitis; 30 mg/kg): 7.13 ± 0.57 g/kg; Severity of pancreatitis (Cn+St pancreatitis; 30 mg/kg): 0.6 ± 0.22; Wet weight of pancreas (Cn+St pancreatitis; 100 mg/kg): 5.65 ± 0.40 g/kg; Severity of pancreatitis (Cn+St pancreatitis; 100 mg/kg): 0.3 ± 0.21; effect on body weight gain [1]: did not affect the body weight gain of rats; mortality (male mice (BALB/c); 1 g/kg oral): no death was encountered

Which “Wet weight of pancreas” value (Cn+St pancreatitis; 1 mg/kg) does the source give for `Cl.Nc1nc(-c2cc(Cl)ccc2Cl)nc(N2CCC[C@H]2CO)n1` [Compound 2, (S)-2-amino-4-(2,5-dichlorophenyl)-6-(2-hydroxymethyl-1-pyrrolidinyl)-1,3,5-triazine hydrochloride] here?
The value was 6.86 ± 0.41 g/kg.

And the Severity of pancreatitis (Cn+St pancreatitis; 1 mg/kg)?
Its Severity of pancreatitis is 1.3 ± 0.30.

What about the “Wet weight of pancreas” value (Cn+St pancreatitis; 3 mg/kg) of the same compound?
The value was 6.83 ± 0.48 g/kg.

And the Severity of pancreatitis (Cn+St pancreatitis; 3 mg/kg)?
The Severity of pancreatitis was 0.8 ± 0.29.

And the “Wet weight of pancreas” value (Cn+St pancreatitis; 10 mg/kg)?
The value was 7.31 ± 0.64 g/kg.

And the Severity of pancreatitis (Cn+St pancreatitis; 10 mg/kg)?
Its Severity of pancreatitis is 0.4 ± 0.16.

And the “Wet weight of pancreas” value (Cn+St pancreatitis; 30 mg/kg)?
Its value is 4.35 ± 0.32 g/kg.

What about the Severity of pancreatitis (Cn+St pancreatitis; 30 mg/kg) of the same compound?
The Severity of pancreatitis was 0.1 ± 0.03.

And the mortality (male mice (BALB/c); 500 mg/kg oral)?
The mortality was “no death was encountered”.

With `Nc1nc(-c2cc(Cl)ccc2Cl)nc(N2C[C@H](O)C[C@H]2CO)n1` [Compound 3, 2-Amino-4-(2,5-dichlorophenyl)-6-[(2S,4R)-2-hydroxymethyl-4-hydroxy-1-pyrrolidinyl]-1,3,5-triazine] as the compound, how does the “Wet weight of pancreas” value (Cn+St pancreatitis; 3 mg/kg) read?
The value was 7.58 ± 0.36 g/kg.

What about the Severity of pancreatitis (Cn+St pancreatitis; 3 mg/kg) of the same compound?
The Severity of pancreatitis was 1.4 ± 0.10.

And the “Wet weight of pancreas” value (Cn+St pancreatitis; 10 mg/kg)?
The value was 6.67 ± 0.37 g/kg.

And the Severity of pancreatitis (Cn+St pancreatitis; 10 mg/kg)?
Its Severity of pancreatitis is 0.7 ± 0.08.

What about the “Wet weight of pancreas” value (Cn+St pancreatitis; 30 mg/kg) of the same compound?
Its value is 5.96 ± 0.70 g/kg.

And the Severity of pancreatitis (Cn+St pancreatitis; 30 mg/kg)?
The Severity of pancreatitis was 0.6 ± 0.08.

And the mortality (male mice (BALB/c); 1 g/kg oral)?
The mortality was “no death was encountered”.

For `Nc1nc(-c2cc(Cl)ccc2Cl)nc(N2CCOCC2)n1` [Compound 4, 2-Amino-4-(2,5-dichlorophenyl)-6-morpholino-1,3,5-triazine], which “Wet weight of pancreas” value (Cn+St pancreatitis; 10 mg/kg) is on record?
The value was 7.33 ± 0.23 g/kg.

And the Severity of pancreatitis (Cn+St pancreatitis; 10 mg/kg)?
The Severity of pancreatitis was 0.9 ± 0.28.

What about the “Wet weight of pancreas” value (Cn+St pancreatitis; 30 mg/kg) of the same compound?
Its value is 6.18 ± 0.53 g/kg.

And the Severity of pancreatitis (Cn+St pancreatitis; 30 mg/kg)?
The Severity of pancreatitis was 0.5 ± 0.22.

What about the “Wet weight of pancreas” value (Cn+St pancreatitis; 100 mg/kg) of the same compound?
The value was 7.49 ± 0.47 g/kg.

What about the Severity of pancreatitis (Cn+St pancreatitis; 100 mg/kg) of the same compound?
Its Severity of pancreatitis is 0.5 ± 0.17.

What about the mortality (male mice (BALB/c); 1 g/kg oral) of the same compound?
The mortality was “no death was encountered”.

What does the source list for `Nc1nc(N)nc(-c2cc(Cl)ccc2Cl)n1.O=C(O)/C=C\C(=O)O` [irsogladine maleate, 2,4-diamino-6-(2,5-dichlorophenyl)-1,3,5-triazine maleate, reference compound]?
Wet weight of pancreas (Cn+St pancreatitis; 10 mg/kg): 10.09 ± 0.51 g/kg; Severity of pancreatitis (Cn+St pancreatitis; 10 mg/kg): 2.2 ± 0.33; Wet weight of pancreas (Cn+St pancreatitis; 30 mg/kg): 8.52 ± 0.60 g/kg; Severity of pancreatitis (Cn+St pancreatitis; 30 mg/kg): 1.5 ± 0.27; Wet weight of pancreas (Cn+St pancreatitis; 100 mg/kg): 7.14 ± 0.58 g/kg; Severity of pancreatitis (Cn+St pancreatitis; 100 mg/kg): 0.4 ± 0.22; minimal effective dose (Cn+St pancreatitis; Rattus norvegicus, only at this dose (10, 30, 100 mg/kg tested), oral, read-out: dose showing a significant reducing effect on the severity of pancreatitis): 100 mg/kg; effect on wet weight (swelling) of pancreas relative to comparator, in words (Cn+St pancreatitis; compound of the invention versus control compound irsogladine maleate): almost equivalent to the compound of the invention in the effect on wet weight of pancreas; inhibitory activity in Cn+St pancreatitis (in words) (Cn+St pancreatitis; rat model, cerulein plus water immersion stress loading): only moderate activity; efficacy in Cn-induced acute pancreatitis (in words) [2]: proved efficacious
